Here are results for 7 molecules from patent US20080311039A1, “Therapeutic and Prognostic Factor Yy1 in Human Cancer” (The Regents of the University of California, priority 2004, published 2008).

Structures can show the parent of a compound that is named as a salt.

For assay [1], the system named is PC-3 cells. Kind of assay: General S-nitrosylation of proteins in PC-3 by immunohistochemistry. Format: cell-based, human. Conditions: PC-3, after treatment with NO. The method, then: (§1) Yin-Yang 1 (YY1) is a transcription factor that may activate or repress gene expression. […] In this study, we examined the direct S-nitrosylation of YY1 using the human prostate cancer cell line, PC-3, as model. Culture cells were incubated for 18 h in the presence of various concentrations of the NO donor DETANONOate (500 μM, 1000 μM) that sensitized PC-3 to Fas ligand- and TRAIL-mediated apoptosis. Subsequently, we analyzed for S-nitrosylation of YY1 by various methods. […] Noteworthy, significant constitutive S-nitrosylated proteins were detected. Further, using double immunofluorescence staining microscopy, we co-localized the presence of S-nitrosylated proteins and YY1.

The test system of another assay is DR5 promoter. The assay can be described thus: DR5 luciferase reporter system (pDR5 wild type) in PC3 cells. Format: cell-based, human. Conditions: PC3 transfected with pDR5, drug treatment vs basal. From the text: Another reporter gene system of use in the present invention utilized firefly luciferase luminescence as the reporter signal. In this reporter system, a wild-type DR5 promoter is operably linked to a luciferase reporter sequence. The wild-type DR5YY1 responsive site can be used in parallel with a DR5 promoter having a non-functional YY1 responsive site, for example, a 5′-deletion mutant-605 that includes the YY1 binding site (pDR5/-605) (described in Yoshida, et al, (2001) FEBS Letters, 507:381-385), or a DR5 promoter sequence missing the YY1 binding sequence (pDR5-YY1 mutant) (see, Huerta-Yepez, et al., AACR Abstract, 2005).
However, many drug-resistant tumor cells are also resistant to TRAIL and such tumors require sensitization to reverse TRAIL resistance. […] This hypothesis was tested by examining a luciferase reporter system (pDR5 wild type) and plasmids in which the YY1-binding site was either deleted (pDR5/-605) and/or mutated (pDR5-YY1 mutant).
Background: A reporter such as luciferase makes a cellular process visible.

Assay [2] relates to YY1. The assay can be described thus: YY1 activity by luciferase reporter assay in PC-3.
The subject of assay [3] is YY1. The assay can be described thus: YY1 expression in PC-3 cells.
In assay [4] the test system is PC-3 cells. The conditions noted are these: TRAIL-resistant human prostate carcinoma (CaP) cell lines; Huerta-Yepez et al. 2004; cited from earlier work.
A further assay concerns Fas. The assay can be described thus: Fas expression in B-NHL cell lines (flow cytometry, RT-PCR, Western). In kind it is cell-based. From the text: (§2) We have recently reported that treatment of B-Non-Hodgkin's Lymphoma (NHL) cell lines with rituximab (anti-CD20 antibody) sensitizes the tumor cells to both chemotherapy and Fas-induced apoptosis (Jazirehi and Bonavida, 2005, Oncogene, 24:2121-2145). This study investigated the underlying molecular mechanism of rituximab-mediated reversal of resistance. Treatment of B-NHL cell lines inhibited the constitutively activated NF-κB. Cells expressing dominant active IκB or treated with NF-κB specific inhibitors were sensitized to both drugs and FasL agonist mAb (CH-11)-induced apoptosis. Downregulation of Bcl-xL expression via inhibition of NF-κB activity correlated with chemosensitivity. […] The role of Bcl-xL expression in the regulation of Fas resistance was not apparent as Ramos HA-Bcl cells were as sensitive as the wild type cells to CH-11-induced apoptosis. […] These findings show two complementary mechanisms underlying the chemo-sensitization and immuno-sensitization of B NHL cells by rituximab via inhibition of NF-κB. The regulation of chemoresistance by NF-B is mediated via Bcl-xL expression whereas the regulation of Fas resistance by NF-B is mediated via YY1 expression and activity.
(§3) We have reported that rituximab triggers and inhibits anti-apoptotic gene products in NHL B-cell lines resulting in sensitization to drug-induced apoptosis (Alas et al., Clin. Cancer Res. 8:836, 2001; Jazirehi et al., Mol. Cancer. Therapy 2:1183, 2003; Vega et al., Oncogene 23:3530, 2004). This study investigated whether rituximab also modifies intracellular signaling pathways resulting in the sensitization of NHL cells to Fas-induced apoptosis. […] Downregulation of YY1 expression was the result of rituximab-induced inhibition of both the p38MAPK signaling pathway and constitutive NF-κB activity. The dual roles of NF-κB and YY1 in the regulation of Fas expression were corroborated by the use of a dominant-active inhibitor of NF-κB (Ramos IκB-ER mutant) and YY1 siRNA, respectively. […]

For assay [5], the system named is PC-3 cells. Kind of assay: Sensitization to TRAIL-induced apoptosis, prostate carcinoma cells. Conditions: 500 μM, 1000 μM, 18 h. Format: cell-based, human. The method, then:
as §1

Assay [6] has as its target T1, YY1 (Homo sapiens, UniProt P25490). The assay can be described thus: YY1 DNA-binding activity in PC-3 cells. In kind it is cell-based. Set-up: endogenous in cells; host or cells: PC-3.
Assay [7] concerns B-NHL cell lines. Kind of assay: Sensitization to CH-11 (FasL agonist mAb)-induced apoptosis in B-NHL cell lines. Format: cell-based.
Source text: as §2, §3

The subject of assay [8] is PC-3 cells. The assay can be described thus: Sensitization to Fas ligand-mediated apoptosis, PC-3. In kind it is cell-based, human. The conditions noted are these: 500 μM, 1000 μM, 18 h. The method, then:
as §1

The test system of assay [9] is NF-κB. Kind of assay: NF-κB DNA-binding activity in PC-3 cells. Format: cell-based, human.
Assay [10] deals with T1, YY1. Kind of assay: YY1 activity in B-NHL cell lines. Format: cell-based. More on the design: endogenous in cells; host or cells: 2F7, Ramos, Raji; rituximab-resistant Ramos RR1.
Source text: as §2, §3

A further assay concerns DR5. Kind of assay: DR5 expression in PC-3 cells by flow, RT-PCR and western. In kind it is cell-based, human.
Assay [11] deals with YY1. Kind of assay: YY1 expression in rituximab-resistant Ramos RR1 cells. In kind it is cell-based. The conditions noted are these: alone or in combination with NF-κB inhibitors.
Procedure: Ramos and Ramos RR1 cells were treated with vincristine, VP-16, CDDP, and ADR, and the NF-κB inhibitors Bortezomib and DHMEQ.
Assay [12] deals with p38MAPK signaling pathway. The assay can be described thus: p38MAPK signaling pathway in NHL cell lines. In kind it is cell-based. Conditions: NHL B cell lines. From the text: (§4) We have reported that rituximab triggers and inhibits anti-apoptotic gene products in NHL B-cell lines resulting in sensitization to drug-induced apoptosis (Alas et al., Clin. Cancer Res. 8:836, 2001; Jazirehi et al., Mol. Cancer. Therapy 2:1183, 2003; Vega et al., Oncogene 23:3530, 2004). This study investigated whether rituximab also modifies intracellular signaling pathways resulting in the sensitization of NHL cells to Fas-induced apoptosis. […] Downregulation of YY1 expression was the result of rituximab-induced inhibition of both the p38MAPK signaling pathway and constitutive NF-κB activity. The dual roles of NF-κB and YY1 in the regulation of Fas expression were corroborated by the use of a dominant-active inhibitor of NF-κB (Ramos IκB-ER mutant) and YY1 siRNA, respectively. The role of rituximab-mediated inhibition of the p38MAPK/NF-κB/YY1 pathways, which result in both Fas upregulation and sensitization to CH11-induced apoptosis, was corroborated by the use of specific chemical inhibitors directed at various targets of these pathways. […] Altogether, these findings provide a novel mechanism of rituximab-mediated signaling by inhibiting the p38MAPK/NF-κB/YY1 pathways and resulting in the sensitization of B NHL to Fas-induced apoptosis. […]

The test system of assay [13] is B-NHL cell lines. The conditions noted are these: Jazirehi and Bonavida 2005; cited from earlier work.
Assay [14] relates to Ramos cells. The assay can be described thus: Chemosensitization to drug-induced apoptosis in Ramos B-NHL cells and variants. Format: cell-based.
Source text: as §2

In assay [15] the test system is Ramos cells. Conditions: B-NHL cell lines; Jazirehi and Bonavida 2005; cited from earlier work.
Assay [16] relates to NF-κB. Kind of assay: Constitutive NF-κB activity in NHL cell lines. In kind it is cell-based. Conditions: NHL B cell lines.
Source text: as §4

Assay [17] relates to YY1. Kind of assay: YY1 expression in NHL B-cell lines. Format: cell-based. Conditions: NHL B cell lines (Example 9).
Source text: as §4

T1 sequence (P25490 whole entry): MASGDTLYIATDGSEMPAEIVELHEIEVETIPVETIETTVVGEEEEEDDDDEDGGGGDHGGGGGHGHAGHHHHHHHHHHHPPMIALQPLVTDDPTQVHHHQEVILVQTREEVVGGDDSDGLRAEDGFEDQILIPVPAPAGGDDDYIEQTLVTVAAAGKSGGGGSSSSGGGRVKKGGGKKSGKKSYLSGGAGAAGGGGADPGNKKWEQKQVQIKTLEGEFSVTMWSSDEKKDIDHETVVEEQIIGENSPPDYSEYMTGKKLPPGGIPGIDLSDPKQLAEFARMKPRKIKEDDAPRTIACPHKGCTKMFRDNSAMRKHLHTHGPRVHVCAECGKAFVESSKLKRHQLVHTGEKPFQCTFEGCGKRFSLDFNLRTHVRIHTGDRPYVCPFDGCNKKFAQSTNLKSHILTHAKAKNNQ

Consider `[N]=O` [NO, nitric oxide], for which the “general S-nitrosylation of proteins” value in the assay with PC-3 cells [1] is reported as “increased”.

On to `[NH2][Pt]([NH2])([Cl])[Cl]` [CDDP, cisplatin], for which the luciferase activity entry in the assay on DR5 promoter is “significantly augmented luciferase activity”.

As to `COc1cc2c(cc1O)CC[C@@H]1[C@@H]2CC[C@]2(C)[C@@H](O)CC[C@@H]12` [2-methoxyestradiol, 2-Methoxyestradiol], the “YY1 activity (luciferase reporter assay)” value with YY1 [2] is “marked reduction”. Further, in the assay with YY1 [3], the YY1 expression result is reported as “marked reduction”.

In the case of `NCCN(CCN)/[N+]([O-])=N/O` [DETANONOate, 3,3-bis(aminoethyl)-1-hydroxy-2-oxo-*1-triazene], in the assay on PC-3 cells [4], the “sensitization of TRAIL-resistant CaP cell lines” value is listed as “can be sensitized”. The Fas expression result in the assay on Fas (B-NHL cell lines (Example 6)) is “upregulation of Fas expression”. The “sensitization to TRAIL-mediated apoptosis” value in the assay on PC-3 cells [5] is recorded as “sensitized”. Further, the “YY1 DNA-binding activity” value on YY1 [6] is reported as “inhibited”. Besides, the “sensitization to CH-11-induced apoptosis” value in the assay with B-NHL cell lines [7] (B-NHL cell lines (Example 6)) is reported as “sensitization to CH-11-induced apoptosis”. Moreover, the “sensitization to Fas ligand-mediated apoptosis” value in the assay with PC-3 cells [8] is listed as “sensitized”. Besides, the “NF-κB DNA-binding activity” value in the assay on NF-κB [9] was “inhibited”. In the assay with YY1 [3], the YY1 expression result is on record as “inhibited YY1 expression”. For the same molecule, the YY1 activity entry at YY1 [10] (B-NHL cell lines (Example 6)) is “Inhibition of YY1 activity”. Also, in the assay with DR5, the DR5 expression result is given as “significant upregulation of DR5 expression”.

As to `CC[C@]1(O)C[C@H]2CN(CCc3c([nH]c4ccccc34)[C@@](C(=O)OC)(c3cc4c(cc3OC)N(C=O)[C@H]3[C@@](O)(C(=O)OC)[C@H](OC(C)=O)[C@]5(CC)C=CCN6CC[C@]43[C@@H]65)C2)C1` [vincristine], the YY1 expression entry in the assay with YY1 [11] was “significantly abrogated or diminished YY1 expression”.

For rituximab: anti-CD20 antibody, in [12], the p38MAPK signaling pathway entry is “inhibition”. Further, the Fas expression result is “upregulation of Fas expression” in the assay with Fas (B-NHL cell lines (Example 6)) and “up-regulated” in the assay on Fas (NHL cell lines, as early as 6 h post treatment, flow cytometry, RT-PCR, Western). Moreover, the “sensitization to Fas-induced apoptosis” value with B-NHL cell lines [13] is recorded as “sensitizes”. In addition, in the assay on Ramos cells [14] (Bcl-xL overexpressing Ramos HA-BclxL cells), the “sensitization to drug-induced apoptosis” value is given as “not sensitized”. Besides, the chemosensitization entry in the assay on Ramos cells [14] (rituximab-resistant Ramos RR1 cells) is “cannot be chemosensitized”. Further, in the assay on Ramos cells [15], the sensitization to chemotherapy result is “sensitizes”. In addition, the “sensitization to CH-11-induced apoptosis” value was “sensitized the cells to CH-11 (FasL agonist mAb)-induced apoptosis and synergy was achieved” in the assay with B-NHL cell lines [7] (2F7, Ramos and Raji, 20 μg/ml); “sensitization to CH-11-induced apoptosis” in the assay on B-NHL cell lines [7] (B-NHL cell lines (Example 6)). Moreover, the “constitutive NF-κB activity” value in the assay on NF-κB [16] is “inhibition”. Besides, the YY1 expression entry in the assay with YY1 [17] is on record as “inhibited”. Besides, the YY1 activity result is “Inhibition of YY1 activity” with YY1 [10] (B-NHL cell lines (Example 6)) and “inhibited” in the assay with YY1 [10] (NHL B cell lines (Example 9)).

For `COc1cccc2c1C(=O)c1c(O)c3c(c(O)c1C2=O)C[C@@](O)(C(=O)CO)C[C@@H]3O[C@H]1C[C@H](N)[C@H](O)[C@H](C)O1` [ADR, doxorubicin hydrochloride], in the assay with DR5 promoter, the luciferase activity entry is given as “significantly augmented luciferase activity”.
